Measurements published in ChEMBL document CHEMBL5727115, “TYK2 inhibitors and uses thereof” (2019).

Biological target: Non-receptor tyrosine-protein kinase TYK2 (Homo sapiens, UniProt P29597)
Experiment: TYK2 JH2 Domain Binding Assay: Binding constants for compounds of the present invention against the JH2 domain were determined by the following protocol for a KINOMEscan® assay (DiscoveRx). A fusion protein of a partial length construct of human TYK2 (JH2domain-pseudokinase) (amino acids G556 to D888 based on reference sequence NP_003322.3) and the DNA binding domain of NFkB was expressed in transiently transfected HEK293 cells. From these HEK 293 cells, extracts were prepared in M-PER extraction buffer (Pierce) in the presence of Protease Inhibitor Cocktail Complete (Roche) and Phosphatase Inhibitor Cocktail Set II (Merck) per manufacturers' instructions. The TYK2 (JH2domain-pseudokinase) fusion protein was labeled with a chimeric double-stranded DNA tag containing the NFkB binding site (5′-GGGAATTCCC-3′ (SEQ ID NO: 1)) fused to an amplicon for qPCR readout, which was added directly to the expression extract (the final concentration of DNA-tag in the binding reaction is 0.1 nM).Streptavidin-coated magnetic beads (Dynal M280) were treated with a biotinylated small molecule ligand for 30 minutes at room temperature to generate affinity resins the binding assays. […]
Assay type: cell-based

Chain of Non-receptor tyrosine-protein kinase TYK2 (P29597 whole entry, the tested form may be a part): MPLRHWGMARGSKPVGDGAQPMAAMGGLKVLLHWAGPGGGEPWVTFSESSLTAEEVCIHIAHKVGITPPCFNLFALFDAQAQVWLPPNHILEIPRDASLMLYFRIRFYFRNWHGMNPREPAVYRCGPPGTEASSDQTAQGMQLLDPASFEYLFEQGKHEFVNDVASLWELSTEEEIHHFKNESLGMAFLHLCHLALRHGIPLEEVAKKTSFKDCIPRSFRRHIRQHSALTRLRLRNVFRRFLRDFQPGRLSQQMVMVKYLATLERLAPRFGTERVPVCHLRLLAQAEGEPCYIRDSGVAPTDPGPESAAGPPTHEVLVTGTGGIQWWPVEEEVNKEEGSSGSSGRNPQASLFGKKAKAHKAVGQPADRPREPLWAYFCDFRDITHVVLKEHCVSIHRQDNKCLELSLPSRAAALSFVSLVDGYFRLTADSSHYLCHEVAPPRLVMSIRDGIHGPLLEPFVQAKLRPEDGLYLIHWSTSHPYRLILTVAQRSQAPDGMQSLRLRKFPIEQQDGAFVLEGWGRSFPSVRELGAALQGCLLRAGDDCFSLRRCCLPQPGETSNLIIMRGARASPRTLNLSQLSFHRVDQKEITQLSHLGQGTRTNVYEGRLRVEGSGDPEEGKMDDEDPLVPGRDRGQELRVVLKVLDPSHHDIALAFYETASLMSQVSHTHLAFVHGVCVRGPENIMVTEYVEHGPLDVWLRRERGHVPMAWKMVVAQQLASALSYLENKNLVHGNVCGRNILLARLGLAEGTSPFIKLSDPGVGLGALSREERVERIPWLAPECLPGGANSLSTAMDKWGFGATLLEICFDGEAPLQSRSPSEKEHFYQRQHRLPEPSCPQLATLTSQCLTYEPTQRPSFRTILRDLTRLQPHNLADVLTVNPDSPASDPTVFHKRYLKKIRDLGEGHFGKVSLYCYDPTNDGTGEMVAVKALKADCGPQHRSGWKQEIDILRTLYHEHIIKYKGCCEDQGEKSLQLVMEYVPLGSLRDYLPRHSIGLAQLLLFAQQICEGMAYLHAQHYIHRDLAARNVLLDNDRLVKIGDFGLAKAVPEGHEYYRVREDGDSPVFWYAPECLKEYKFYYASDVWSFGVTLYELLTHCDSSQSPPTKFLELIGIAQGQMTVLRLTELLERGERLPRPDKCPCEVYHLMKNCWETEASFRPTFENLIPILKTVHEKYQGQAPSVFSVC

## COc1cc(Cl)ccc1Nc1cc(Nc2cc(C)ccn2)nc2[nH]n(C)c(=O)c12
  Kd: > 0.01 µM
